Source: US11360010B1, “Methods and device for controlled cell stretch and imaging” (The Regents of the University of Colorado, a body, priority 2019, dated 2022)
“Also recorded” adds a separate entry of the source.

Legend:
Format in all cases: cell-based
[1] = test system: mouse embryonic skin fibroblasts (MSFs); assay: Live imaging of nuclear area and chromatin condensation (H2b-eGFP) during cyclic stretch routines; conditions: BAPTA 50 μM, KN-62 10 μM, cytochalasin D 2 μM
Experimental: (§1) Transgenic mice harboring a fluorescence tag at the H2b histone—B6.Cg-Tg (HIST1H2BB/EGFP) 1 Pa/J, Stock No: 006069—were obtained from Jackson Laboratory (Bar Harbor, Me.). All animal procedures were performed following Institutional Animal Care & Use Committee approval. Skin from embryonic mice was harvested 18.5 days post-conception. Skin was minced, washed with Hank's Balanced Salt Solution (HBSS), and incubated in 35 mm dishes in shallow medium (˜0.5 mL) to avoid floating of the tissue for 4 days, during which fibroblasts extruded from the tissue. After 4 days, remaining tissue was removed (picked out with a pipette), and extruded cells in the dish were detached using TrypLE (Gibco, Gaithersburg, Md.) and expanded in culture for another 2 days before being seeded into stretch chambers for experiments. The inner well of assembled stretch chambers was ozone activated for 30 s via corona arc discharge (BD-20; Electro-Technic Products) and coated with 50 μg/mL bovine plasma fibronectin (F1141; Sigma-Aldrich) in a total volume of 250 μL overnight at 37° C. Mouse embryonic skin fibroblasts (MSFs) were seeded into stretch chambers at a density of 80,000 cells/cm′ 1 day before experiments. MSFs were extruded and cultured in DMEM (ATCC, Manassas, Va.) containing 10% fetal bovine serum (Gibco), 1% penicillin-streptomycin (Gibco), and 25 mM HEPES (Gibco) at 37° C. and 5% CO2. To inhibit calcium signaling, MSFs were incubated with 50 μM BAPTA (A4926; Sigma-Aldrich) or 10 μM KN-62 (12142; Sigma-Aldrich) 1 h before cyclic strain experiments. To disrupt actin polymerization, MSFs were incubated with 2 μM cytochalasin D (C8273; Sigma-Aldrich) 30 min before experiments. Vehicle controls were incubated with 0.001% DMSO (276855; Sigma-Aldrich) 1 h before experiments. To test the use of chromatin dyes, cells were stained with Hoechst (NucBlue Live ReadyProbes; Life Technologies) 30 min before experiments. Stretch experiments were performed at 25° C. (room temperature) under humidified conditions.
The stretch device was mounted on an inverted epi-fluorescence microscope (Ti-Eclipse; Nikon) with a 60× water immersion objective (0.26 μm/pixel) and an EMCCD camera (iXonEM+; Andor Technology). The surrounding of the microscope was humidified to prevent the water on the objective from evaporating during the 1 h experiment. Oil immersion is also possible, but water immersion provided better image quality with the silicone membranes used.
Using MATLAB, a sinusoidal control signal (1 Hz) was sent to the Arduino controller, resulting in a cyclic stretch routine of the membrane (FIG. 1C), with peak strains set to 5% (−0.1 V), 10% (−0.9 V), and 20% (−2.25 V) as determined by the calibration curve. Cells were cyclically stretched for 30 min, followed by 30 min of rest, during which 2 μm z-stacks (0.5 μm steps) of nuclei were acquired. During the rest period, cells experienced no stretch but a constant magnetic field using the offset Arduino input voltage (0.8 V) that keeps the piston suspended at 0% stretch. For acquisition, the cyclic stretch routine was paused for 1 min to allow for a steady imaging plane and fine readjustments in z-position due to water evaporation. Unstretched control cells (0%) were seeded into stretch chambers but kept stationary on the microscope without any magnetic field applied. Unstretched magnetic control cells (MAG) were placed stationary inside the coil without the piston, and a magnetic field corresponding to a 20% sinusoidal stretch routine was applied.
A custom MATLAB code was used to track nuclear outlines via H2b-eGFP and to generate H2b intensity histograms during an image series, from which changes in nuclear area, H2b skewness, and H2b kurtosis were calculated.

[2] = test system: mouse embryonic skin fibroblasts (MSFs); assay: Nuclear strain transfer from membrane to nucleus after cyclic stretch; conditions: after 30 min of 20% cyclic strain; relaxed vs stretched images; cytochalasin D 2 μM vs NT cells
Experimental: Transgenic mice harboring a fluorescence tag at the H2b histone—B6.Cg-Tg (HIST1H2BB/EGFP) 1 Pa/J, Stock No: 006069—were obtained from Jackson Laboratory (Bar Harbor, Me.). All animal procedures were performed following Institutional Animal Care & Use Committee approval. Skin from embryonic mice was harvested 18.5 days post-conception. Skin was minced, washed with Hank's Balanced Salt Solution (HBSS), and incubated in 35 mm dishes in shallow medium (˜0.5 mL) to avoid floating of the tissue for 4 days, during which fibroblasts extruded from the tissue. After 4 days, remaining tissue was removed (picked out with a pipette), and extruded cells in the dish were detached using TrypLE (Gibco, Gaithersburg, Md.) and expanded in culture for another 2 days before being seeded into stretch chambers for experiments. […] To test the use of chromatin dyes, cells were stained with Hoechst (NucBlue Live ReadyProbes; Life Technologies) 30 min before experiments. […]
To analyze the amount of strain transferred from the membrane to the nucleus after cyclic stretch routines, image stacks of nuclei were acquired under relaxed or stretched conditions, and bulk nuclear strain was calculated from the change in nuclear area using the same MATLAB script as above. Note that nuclear strain transfer could not be accurately analyzed before stretch routines because of the fast response in area decline.

[3] = test system: mouse embryonic skin fibroblasts (MSFs); assay: Perinuclear F-actin and γH2a.x staining after cyclic stretch routines; conditions: cytochalasin D 2 μM
Experimental: as §1
MSFs were fixed in 4% ice-cold paraformaldehyde (PFA) for 10 min, permeabilized with 1% Triton-X100 in phosphate-buffered saline for 15, min and blocked with 10% NGS, 1% bovine serum albumin in 0.1% PBT (0.1% Tween-20 in phosphate-buffered saline) for 60 min. Primary incubation of Phospho-Histone H2A.X Ser139 (9718S; Cell Signaling Technology, Danvers, Mass.) was performed at 4° C. overnight in 0.1% PBT containing 1% bovine serum albumin at 1:400. Secondary incubation of goat anti-rabbit IgG-AF546 (Life Technologies) was performed in primary incubation buffer for 45 min at 22° C. at a dilution of 1:500. F-actin was counterstained with phalloidin-CF405 (Biotium, Fremont, Calif.) for 30 min at a dilution of 1:30. Staining was performed in containment wells. After staining, membranes were cut out of the containment well using a circular punch and mounted cell-side up onto #1.0 glass slides with ProLong Diamond Antifade Mountant (Life Technologies). Image stacks (5 μm, 1 μm step) of multiple nuclei in a 318×318 μm area were acquired on a Nikon MR confocal microscope using a 40× oil immersion objective (0.31 μm/pixel). A custom MATLAB code was used to track nuclear outlines via H2b-eGFP and to quantify perinuclear F-actin intensities and γH2a.x foci in projected image stacks. Only the projected F-actin within the nuclear outline (apical perinuclear F-actin) was counted in this analysis. To account for variations in staining and imaging (the same imaging settings were used), fluorescence channels were histogram normalized. Perinuclear F-actin intensities were calculated as the sum of normalized phalloidin intensities within a nuclear border. DNA damage foci were determined by detecting 2D peaks in the normalized γH2a.x channel using the MATLAB script FastPeakFind (v. 1.7).

[4] = static magnetic-field-only routine (MAG), no stretch
[5] = after 30 min 5% cyclic stretch, vs NT or VH control cells, BAPTA 50 μM, KN-62 10 μM
[6] = after 30 min 5% cyclic stretch, vs NT or VH control cells, BAPTA 50 μM, KN-62 10 μM, listed as CD
[7] = after 30 min 20% cyclic stretch, vs NT or VH control cells, BAPTA 50 μM, KN-62 10 μM
[8] = after 30 min 20% cyclic stretch, vs NT or VH control cells, BAPTA 50 μM, KN-62 10 μM, listed as CD

C=C1[C@@H](C)[C@H]2[C@H](Cc3ccccc3)NC(=O)[C@]23[C@H](OC(C)=O)/C=C/[C@@](C)(O)C(=O)[C@@H](C)C/C=C/[C@H]3[C@@H]1O [cyto D, cytochalasin D]
change in nuclear area ([1]; 30 min 5% cyclic strain, 1 Hz, vs NT/VH cells (area increases)): abrogated the increase in nuclear area
change in nuclear area ([1]; 30 min 5% cyclic strain, 1 Hz, vs NT/VH cells (area increases), listed as CD): inhibited changes in nuclear area
chromatin condensation (H2b histogram kurtosis and skewness) ([1]; 30 min 5% cyclic strain, 1 Hz, vs NT/VH cells (condensation decreases)): distinctly increased chromatin condensation
chromatin condensation (H2b histogram kurtosis and skewness) ([1]; 30 min 5% cyclic strain, 1 Hz, vs NT/VH cells (condensation decreases), listed as CD): inhibited changes in nuclear area and chromatin condensation
change in nuclear area ([1]; 30 min 20% cyclic strain, 1 Hz, vs NT/VH cells (area decreases)): inhibited nuclear shrinkage
change in nuclear area ([1]; 30 min 20% cyclic strain, 1 Hz, vs NT/VH cells (area decreases), listed as CD): inhibited changes in nuclear area
chromatin condensation (H2b histogram kurtosis and skewness) ([1]; 30 min 20% cyclic strain, 1 Hz, vs NT/VH cells (condensation increases)): inhibited nuclear shrinkage and chromatin condensation
chromatin condensation (H2b histogram kurtosis and skewness) ([1]; 30 min 20% cyclic strain, 1 Hz, vs NT/VH cells (condensation increases), listed as CD): inhibited changes in nuclear area and chromatin condensation
change in nuclear area [1, 4]: showed no effect
chromatin condensation (H2b histogram kurtosis and skewness) [1, 4]: showed no effect
strain transferred from membrane to nuclei (nuclear strain) [2]: higher nuclear strains; also recorded: increase
number of γH2a.x foci per nucleus (DNA damage, double-strand breaks) [3, 5]: distinctly increased
perinuclear F-actin intensities [3, 5]: increased
number of γH2a.x foci per nucleus (DNA damage, double-strand breaks) [3, 6]: increased number of foci
perinuclear F-actin intensities [3, 6]: altered F-actin intensities
number of γH2a.x foci per nucleus (DNA damage, double-strand breaks) [3, 7]: distinctly increased
perinuclear F-actin intensities [3, 7]: abrogated
number of γH2a.x foci per nucleus (DNA damage, double-strand breaks) [3, 8]: increased number of foci
perinuclear F-actin intensities [3, 8]: altered F-actin intensities
perinuclear F-actin intensities ([3]; after magnetic-field-only routine (MAG)): showed no effect
number of γH2a.x foci per nucleus (DNA damage, double-strand breaks) ([3]; static magnetic-field-only controls (MAG), BAPTA 50 μM, KN-62 10 μM): had no effect
